Each structure is given as a SMILES string. Entries after “also recorded” stand apart in the source; their conditions may differ.

The target of one assay is T1, Nampt (Mus musculus, UniProt Q99KQ4).
T1 construct: from tissue; host or cells: whole heart homogenate of db/db mice
Description: Gastrocnemius muscle Nampt enzymatic activity in db/db mice. Conditions: 4 weeks, vs db-Veh. It is filed as in vivo. An excerpt: Nampt enzymatic activity.

The test system of a further assay is db/db mice hearts. Description: Western blotting of db/db heart lysates. Conditions: vs vehicle. The assay is classed as in vivo. As to the method: Western blotting. For studies aimed to assess the insulin stimulated AKT phosphorylation, following four-week P7C3 treatment, mice were injected with Novolin R human insulin (1 Unit/kg body weight, i.p.), and hearts were collected after 5 minutes for Western blot analysis. Protein lysates for Western blotting were prepared from mouse hearts as described previously. Equivalent amounts of protein were loaded and resolved using 12% precast polyacrylamide gels (BioRad, CA, USA). Successful transfer of proteins was detected using Ponceau S (Sigma-Aldrich, MO, USA), and blots were probed with mouse monoclonal primary antibody for phospho AKT^ser473 (p-AKT), total AKT (t-AKT), phospho eNOS^ser1177 (p-eNOS), total eNOS (t-eNOS), Beclin1, and GAPDH (Cell signaling, MA, USA). HRP conjugated Rabbit anti-mouse antibody (Millipore) was used as a secondary antibody. Target protein band densities were quantified using Image J software.

For assay [1], the system named is db/db mice. Description: Echocardiography, body and heart weight in db/db mice. The assay is classed as in vivo. Conditions: 10 mg/kg/day i.p., four-weeks. As to the method:
Echocardiography. Serial […] echocardiography was conducted under 2-3% isoflurane/oxygen anesthesia using a Visualsonic Vevo 770 system equipped with 30 MHz linear signal transducer (Toronto, Ontario, Canada). The mice were depilated as required for imaging and before placing on a 37° C. heated platform. Echo measurements were taken from at least three different cardiac cycles for each mouse. M-mode imaging from short-axis of the left ventricle (LV), using the papillary muscles for reference, was used to obtain measurements. Fractional shortening (FS %) and ejection fraction (EF %) were calculated as previously described.

The subject of another assay is RAW264.7 cells. Description: qRT-PCR of inflammatory genes in LPS-treated RAW264.7 cells. The assay is classed as cell-based. Conditions: LPS 1 μg/ml + P7C3 1 μM, 24 hours. As to the method:
FIGS. 2A and 2B show macrophage: LPS induced inflammation and recovery via P7 markers such as NF-κb, IL-1β, IL-6. […] RAW264.7 cells was treated with LPS (1 μg/ml) and P7C3 (1 μM) for 24 hours. The isolated mRNA was subjected qRT-PCR using iScript cDNA Synthesis Kit (Bio-Rad, Cat #: 1706691) and iTaq Universal SYBR Green Supermix (Bio-Rad, Cat #: 1725121) in iCycler iQ Real Time PCR Detection System (Bio-Rad). The value of 2^-ΔΔCt was calculated and expressed as a Mean±SEM (n=6). The statistical analysis was performed using two-way ANOVA with Tukey's multiple comparisons test in GraphPad Prism 8.4.3, and p≤0.05 was considered statistically significant. […]
Background: In qPCR the cycle at which signal appears reflects the starting amount.

For a further assay, the system named is C2C12 cells. Description: Scratch (wound closure) assay in C2C12 cells. The assay is classed as cell-based, mouse. Conditions: for percent wound closure: 16 h, vs control cells. Here is the method: In vitro model (C2C12 skeletal muscle myoblast) of scratch assay (wound) was created by using pipette tip and recovery of cells was monitored for 16 hours after the scratch. The percent wound closure was measured by the area indicated (FIG. 5B).
Scratch assay in C2C12 cells. C2C12 cells were seeded into either 6-well or 12-well plates and allowed to grow up to 90% confluence. Scratch or wound injury was induced by streaking the plate (2-3 streaks/well) using a 1000 μL sterilized pipette tip in each well. Treatments were performed with the vehicle or P7C3 groups within the cell culture media. Images were taken of each streak immediately after with an Echo Rebel microscope, and the cell culture plates were then placed in the incubator for 16 h. After 16 h, images were obtained at the same location of the streaks utilizing the coordinates marked. The ImageJ software (NIH, USA) was utilized to calculate the areas of the scratches at the 0 h and 16 h time point, with the area at 16 h divided by the area at 0 h to determine the percent wound closure.
Three sets of experiments were performed with this assay to determine the percent wound closure with the P7C3 solution, the P7C3 NPs, the A01B conjugate P7C3 NPs, and the P7C3 scrambled aptamer NPs. For assessing the effects of the P7C3 solution on percent wound closure, the cells were treated with the vehicle control (DMSO) and 100 nM-2 μM P7C3. For determining the effect of P7C3 NPs, the cells were treated with the vehicle control (blank NPs) and 10 nM-1 μM P7C3 NPs. Finally, for the targeted A01B conjugated P7C3 NPs and scrambled aptamer conjugated P7C3 NPs, the cells were treated with the vehicle controls (blank aptamer conjugated NPs) and 100 nM each of both aptamers conjugated NPs.

Assay [2] deals with db/db mice. Description: LC-MS/MS lipidomics of gastrocnemius muscle in db/db mice. The assay is classed as in vivo. As to the method: Lipidomics. The lipidomic profiling of GAS muscle was performed using a liquid chromatography-tandem mass spectrometry (LC-MS/MS) method as described previously. Briefly, the GAS muscle samples were collected, and flash frozen in liquid nitrogen. Around 50-100 mg of the muscle tissue was homogenized using a bead-beating method, then the obtained supernatant was further cleaned and concentrated by solid phase extraction. The extracted LMs samples were dried under vacuum and stored at […] for future LC-MS/MS analysis. The dried extracts were reconstituted with 50 μL of methanol, and 10 μL was injected into LC-MS/MS to observe lipid profiles in GAS muscles. The LC-MS/MS system components were from Shimadzu Scientific Instruments Inc. (Columbia, Md., USA). All analyses and data processing were completed with the use of Shimadzu Lab Solutions V5.91 software (Shimadzu Scientific, Tokyo, Japan).

T1 sequence (Q99KQ4 whole entry): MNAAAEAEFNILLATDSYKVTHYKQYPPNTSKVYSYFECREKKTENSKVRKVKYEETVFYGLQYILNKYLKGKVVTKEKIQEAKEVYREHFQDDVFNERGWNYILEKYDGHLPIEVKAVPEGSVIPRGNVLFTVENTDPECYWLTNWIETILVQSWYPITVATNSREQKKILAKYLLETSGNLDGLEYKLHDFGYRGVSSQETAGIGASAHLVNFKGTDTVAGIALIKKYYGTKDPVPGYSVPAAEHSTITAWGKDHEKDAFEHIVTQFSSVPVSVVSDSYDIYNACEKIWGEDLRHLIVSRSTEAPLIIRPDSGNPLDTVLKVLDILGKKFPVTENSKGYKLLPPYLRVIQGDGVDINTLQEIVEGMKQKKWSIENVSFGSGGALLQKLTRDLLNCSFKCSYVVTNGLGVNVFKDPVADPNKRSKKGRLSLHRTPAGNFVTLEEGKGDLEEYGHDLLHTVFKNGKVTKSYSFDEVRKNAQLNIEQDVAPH

Take `OC(CNc1ccccc1)Cn1c2ccc(Br)cc2c2cc(Br)ccc21` (stereo not drawn) [P7C3, 3,6-Dibromo-a-[(phenylamino)methyl]-9H-carbazole-9-ethanol]: the “Nampt activity in gastrocnemius muscle” value on Nampt is listed as “significant increase”. In the assay with db/db mice hearts (10 mg/kg/day i.p.), the “p-AKT signaling in cardiac tissue” value is “significantly increased”. In addition, in the assay on db/db mice hearts, the “Beclin 1 protein expression” value is “significant increase” and the “p-eNOS levels in cardiac tissue” value is reported as “significantly increased”. In the assay on db/db mice [1], the “ejection fraction (EF %)” value is on record as “significantly increased” and the “fractional shortening (FS %)” value was “significantly increased”. Besides, in the assay on RAW264.7 cells, the IL-1β expression entry was “significantly decreased”, the IL-6 expression entry was “decreased”, the IL-10 expression entry is “decreased” and the NF-κb expression result is reported as “significantly decreased”. For the same molecule, the TNFα expression entry with RAW264.7 cells is recorded as “significantly decreased”. For the same molecule, in the assay with C2C12 cells (10 nM), the percent wound closure entry is “not significant”. For the same molecule, the percent wound closure entry with C2C12 cells (100 nM) is reported as “not significant”. In addition, in the assay with C2C12 cells (500 nM), the percent wound closure result is “significantly increased”. In addition, the percent wound closure result in the assay with C2C12 cells (1 μM) is recorded as “significantly increased; also recorded: significantly higher”. For the same molecule, the percent wound closure entry with C2C12 cells (2 μM) is given as “significantly increased”. For the same molecule, the “gap closure at 16 hrs” value with C2C12 cells (C2C12 cells, 1 μM or 100 nM for 24 hours followed by wire injury) is “significantly augmented”. Further, in the assay with db/db mice [2], the “anti-inflammatory LMs (DHA, HDoHE derivatives, EPA, 5-HEPE)” value is listed as “lowered” and the “pro-inflammatory LMs (arachidonic acid, 11-HETE, 15-HETE)” value was “significantly attenuated”. In addition, the “2-arachidonoyl glycerol (2-AG) levels” value with db/db mice [2] (vs db-Veh) is reported as “significantly decreased”. For the same molecule, the “anandamide (AEA) levels” value in the assay with db/db mice [2] (vs db-Veh and WT) is “significantly higher”.

Values taken from patent US20220370636A1, “NICOTINAMIDE ADENINE DINUCLEOTIDE ACTIVATOR AND USE THEREOF” (University of South Florida, priority 2021, published 2022).
